The target of this assay is T1, α1A receptor (Homo sapiens, UniProt P35348).
T1 construct: expressed in transfected cells
T1 sequence (P35348 1-466): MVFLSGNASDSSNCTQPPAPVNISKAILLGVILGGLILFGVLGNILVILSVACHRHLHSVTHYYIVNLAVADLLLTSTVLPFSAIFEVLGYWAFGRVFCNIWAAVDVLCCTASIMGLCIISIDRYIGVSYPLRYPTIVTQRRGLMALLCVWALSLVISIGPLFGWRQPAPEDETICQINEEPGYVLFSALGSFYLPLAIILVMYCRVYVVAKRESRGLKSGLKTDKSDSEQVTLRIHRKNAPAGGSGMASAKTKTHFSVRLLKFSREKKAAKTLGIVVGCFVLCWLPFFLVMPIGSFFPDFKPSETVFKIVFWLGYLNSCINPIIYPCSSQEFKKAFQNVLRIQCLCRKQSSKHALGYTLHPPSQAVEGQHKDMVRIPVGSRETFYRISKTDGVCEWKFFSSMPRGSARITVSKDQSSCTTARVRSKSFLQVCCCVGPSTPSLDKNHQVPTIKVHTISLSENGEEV
The assay can be described thus: α1A receptor affinity, [3H]-Prazosin binding to membranes. The note with it: Cheng Prusoff. The procedure:
On the day of the experiments membranes (see below for description of membrane preparation) are thawed and homogenized in buffer using an ultra turrax and diluted to the desired concentration (5 μg/well˜5 μg/900 μl, store on ice until use).
The experiment is initiated by mixing of 50 μl test compound, 50 μl [^3H]-Prazosin and 900 μl membranes, and the mixture is incubated for 20 minutes at 25° C. Non-specific binding is determined in the presence of 10 μM WB-4101 and the total binding is determined in the presence of buffer. After the incubation, bound ligand is separated from unbound by filtration through Unifilter GF/B, presoaked in 0.1% PEI for 30 minutes, using a Tomtec Cell Harvester program (D4.2 . . . 4) 96 well. Filters are washed 3 times with 1 ml ice-cold buffer, dried at 50° C. and 35 μl scintillation liquid/well is added to the filters. Bound radioactivity is counted in a Wallac OY 1450 MicroBeta. The affinity (Ki 10 nM) is calculated from Y=100/(1+10^(X-logIC50^)) where Y denotes % binding and X denotes the concentration of compound. […] Ki was calculated from the Cheng Prusoff equation Ki=(IC50/(1+([L]/Kd))
Cells were grown to 95% confluence, washed twice with buffer (50 mM Tris pH 7.7, 125 mM NaCl) and detached by scraping in a volume of 10 ml buffer/160 cm^2. […] Protein concentration was measured with BCA™ (Pierce #23223+23224).

Several values for one entry are separate records, joined by “and”; a condition that tells them apart may be missing. Identical values can stand only once.

Drawing on patent publication US8138220B2, “[2-(6-fluoro-1H-indol-3-ylsulfanyl)benzyl]methyl amine for the treatment of affective disorders” (H. Lundbeck A/S, priority 2006, dated 2012), this text covers Ki for one compound.

Usually Ki stands for the dissociation constant of the complex between target and ligand, obtained from inhibition or displacement. With `CNCc1ccccc1Sc1c[nH]c2cc(F)ccc12` [compounds of the present invention, [2-(6-fluoro-1H-indol-3-ylsulfanyl)benzyl]methyl amine], the Ki is 14 nM and 10 nM.
